BindingDB's records for patent US20240336642 (The General Hospital, 2024)

biological target: T1, Polyunsaturated fatty acid lipoxygenase ALOX12/ALOX15 (Homo sapiens, UniProt P16050+P18054); assay: Biological Activity of Exemplified Compounds as Inhibitors of 12/15-LOX
T1 sequence (P16050 whole entry): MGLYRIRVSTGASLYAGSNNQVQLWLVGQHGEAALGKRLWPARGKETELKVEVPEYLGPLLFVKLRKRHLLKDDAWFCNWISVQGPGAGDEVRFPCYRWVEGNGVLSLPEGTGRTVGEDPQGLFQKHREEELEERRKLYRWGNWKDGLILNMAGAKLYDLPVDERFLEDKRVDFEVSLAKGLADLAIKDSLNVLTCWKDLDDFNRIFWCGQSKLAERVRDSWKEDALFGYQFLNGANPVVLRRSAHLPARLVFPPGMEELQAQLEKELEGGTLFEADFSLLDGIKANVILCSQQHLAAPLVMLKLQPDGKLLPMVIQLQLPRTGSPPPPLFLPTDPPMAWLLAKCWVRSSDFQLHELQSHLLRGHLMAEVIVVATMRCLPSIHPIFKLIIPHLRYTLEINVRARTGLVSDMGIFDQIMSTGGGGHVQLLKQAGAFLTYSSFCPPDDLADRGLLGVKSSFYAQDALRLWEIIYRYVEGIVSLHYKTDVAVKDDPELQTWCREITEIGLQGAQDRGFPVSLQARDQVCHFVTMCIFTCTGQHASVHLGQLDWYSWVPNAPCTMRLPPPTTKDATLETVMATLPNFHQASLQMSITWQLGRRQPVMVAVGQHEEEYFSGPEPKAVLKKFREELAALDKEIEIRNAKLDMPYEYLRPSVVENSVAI
T1 sequence (P18054 whole entry): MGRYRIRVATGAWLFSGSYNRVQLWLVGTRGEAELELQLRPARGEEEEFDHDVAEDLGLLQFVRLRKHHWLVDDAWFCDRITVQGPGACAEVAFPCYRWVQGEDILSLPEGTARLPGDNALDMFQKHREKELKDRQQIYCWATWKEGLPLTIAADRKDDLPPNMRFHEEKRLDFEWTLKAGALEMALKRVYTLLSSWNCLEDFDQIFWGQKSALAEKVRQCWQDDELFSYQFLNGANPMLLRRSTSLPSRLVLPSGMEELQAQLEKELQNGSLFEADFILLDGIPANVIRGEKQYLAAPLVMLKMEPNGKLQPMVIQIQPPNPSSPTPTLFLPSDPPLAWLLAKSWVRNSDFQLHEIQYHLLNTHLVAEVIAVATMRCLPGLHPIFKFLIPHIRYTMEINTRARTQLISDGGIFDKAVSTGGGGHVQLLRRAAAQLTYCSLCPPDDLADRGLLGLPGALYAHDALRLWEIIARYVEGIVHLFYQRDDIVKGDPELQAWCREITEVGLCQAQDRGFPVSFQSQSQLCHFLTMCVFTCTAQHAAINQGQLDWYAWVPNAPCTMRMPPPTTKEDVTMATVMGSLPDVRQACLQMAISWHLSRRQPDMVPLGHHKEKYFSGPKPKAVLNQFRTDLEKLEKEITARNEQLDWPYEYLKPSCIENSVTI

SMILES	IC50
CNc1oc(-c2cc(Cl)cc(Cl)c2OC(F)F)nc1C#N [US20240336642, Compound 4]	97 nM
CNc1oc(-c2cc(Cl)cc(OC)c2Cl)nc1C#N [US20240336642, Compound 9]	380 nM
N#Cc1nc(-c2cc(Cl)cc(Cl)c2F)oc1NCCCCCO [US20240336642, Compound 25]	> 20000 nM
